Results from patent US4175081A, “5-Substituted thiadiazole ureas” (priority 1977, dated 1979).

What was measured:
Amaranth pigweed (PW) [1] = assay: Pre-emergence herbicide test; assay type: in vivo, Amaranthus retroflexus; conditions: 336 h, two weeks after treatment
Summary of the method: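 Pigweed was surface-seeded in potted soil one day before spraying at 8 lbs compound per acre, or 4 lbs/acre, in 38 gallons per acre. Pots were kept in the greenhouse with sub-irrigation only; injury or control was rated visually two weeks after treatment.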

[2] = tested on: Yellow foxtail grass (YF); assay: Pre-emergence herbicide test; assay type: in vivo, Setaria glauca; conditions: Setaria, 336 h, two weeks after treatment
Summary of the method: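 Seeds surface-sown in potting soil one day before spraying; compounds applied pre-emergence at 8 or 4 lbs/acre in 38 gallons/acre spray. Pots held in greenhouse with sub-irrigation only. Injury or control rated visually two weeks after treatment.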

Bean (BN) [3] = assay: Post-emergence herbicide test; assay type: in vivo, Phaseolus vulgaris var. Black Valentine; conditions: Phaseolus vulgaris, post-emergence, 336 h, two weeks after treatment
Summary of the method: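 Snapbean (Phaseolus vulgaris var. Black Valentine) was tested post-emergence. Four seeds were sown in 3' plastic pots of potting soil at a depth equal to the seed diameter, then sub-irrigated in greenhouse trays. Planting dates were staggered so plants were sprayed once primary leaves had expanded, with the growing point at the primary leaf nodes.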

Corn (CN) [4] = assay: Post-emergence herbicide test; assay type: in vivo; conditions: Zea mays, 336 h, two weeks after treatment
Summary of the method: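 Greenhouse seedlings grown in potting soil and sprayed post-emergence at 8 lbs compound/acre (formulations also made for 4 lbs/acre) in 38 gallons/acre spray volume. Watering by sub-irrigation only. Injury or control rated visually two weeks after treatment.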

[5] = tested on: Yellow foxtail grass (YF); assay: Post-emergence herbicide test; assay type: in vivo, Setaria glauca; conditions: Setaria, 336 h, two weeks after treatment
Summary of the method: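 Potted seedlings grown in greenhouse, planting staggered to reach the target stage together, then sprayed post-emergence at 8 lbs actual compound/acre in 38 gallons/acre (4 lbs/acre formulations also prepared). Sub-irrigated afterwards. Injury or control rated visually two weeks after treatment.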

Barnyard grass (BG) [6] = assay: Post-emergence herbicide test; assay type: in vivo; conditions: Echinochloa crus-galli, 336 h, two weeks after treatment
Summary of the method: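 Greenhouse pot-grown barnyard grass seedlings sprayed post-emergence at 8 lbs active compound per acre (some at 4 lbs/acre) in 38 gallons per acre, then sub-irrigated. Injury or control rated visually two weeks after treatment.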

Bean (BN) [7] = assay: Pre-emergence herbicide test; assay type: in vivo, Phaseolus vulgaris var. Black Valentine; conditions: Phaseolus vulgaris, 336 h, two weeks after treatment
Summary of the method: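 Black Valentine bean was seeded in potting soil one day before spraying. Compound was applied pre-emergence at 8 lbs/acre (also 4 lbs/acre) in 38 gallons per acre. Plants were sub-irrigated and injury or control was rated visually after two weeks.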

Turnip (TP) [8] = assay: Post-emergence herbicide test; assay type: in vivo, Brassica sp.; conditions: Brassica rapa, post-emergence, 336 h, two weeks after treatment
Summary of the method: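 A greenhouse post-emergence herbicide test on turnip. Seeds were sown on the surface of potting soil in 3' plastic pots, lightly covered with screened soil and watered from below. Planting was timed so seedlings had 1 or 2 true leaves above the cotyledons at spraying, done in a hood with a fixed nozzle. Control or injury was scored by eye after two weeks.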

Corn (CN) [9] = assay: Pre-emergence herbicide test; assay type: in vivo; conditions: Zea mays, 336 h, two weeks after treatment
Summary of the method: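 Four corn seeds per pot, sown at seed-diameter depth one day before spraying, got soil surface treatment at 8 lbs/acre (4 lbs/acre formulations also prepared) in 38 gallons/acre. Pots were greenhouse-held with sub-irrigation only. Injury or control was scored visually two weeks after treatment.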

Turnip (TP) [10] = assay: Pre-emergence herbicide test; assay type: in vivo, Brassica sp.; conditions: Brassica rapa, pre-emergence, 336 h, two weeks after treatment
Summary of the method: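 Turnip (Brassica sp.) seeds were surface sown in 3' plastic pots of potting soil, covered with a thin layer of screened soil, and sub-irrigated in greenhouse trays. Pots were seeded one day ahead of treatment, sprayed pre-emergence under a hood with a fixed nozzle and moving belt, then kept in the greenhouse.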

Amaranth pigweed (PW) [11] = assay: Post-emergence herbicide test; assay type: in vivo, Amaranthus retroflexus; conditions: 336 h, two weeks after treatment
Summary of the method: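 Pot-grown pigweed was sprayed post-emergence at the 1–2 true-leaf stage with compound at rates equivalent to 8 lbs per acre (formulations also prepared for 4 lbs/acre) in 38 gallons per acre, using a hood with fixed nozzle. Plants were sub-irrigated in the greenhouse, and injury or control was rated visually two weeks after treatment.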

Crabgrass (CG) [12] = assay: Pre-emergence herbicide test; assay type: in vivo, Digitaria sanquinalis; conditions: Digitaria sanguinalis, pre-emergence, 336 h, two weeks after treatment
Summary of the method: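 Crabgrass (Digitaria sanquinalis) was surface seeded in 3' plastic pots of potting soil, covered with screened soil, and watered by sub-irrigation in greenhouse trays. Pots were seeded one day before spraying in a hood with a moving belt and fixed nozzle. Plants stayed in the greenhouse on sub-irrigation, and pre-emergence control was rated visually two weeks after treatment.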

Johnson grass (JG) [13] = assay: Pre-emergence herbicide test; assay type: in vivo, Sorgum helepense; conditions: Sorghum halepense, 336 h, two weeks after treatment
Summary of the method: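 Pots seeded one day before spraying; compound applied pre-emergence at 8 lbs/acre (or 4 lbs/acre) in 38 gallons/acre spray volume. Sub-irrigated in greenhouse; injury/control rated visually two weeks after treatment.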

Cotton (CT) [14] = assay: Pre-emergence herbicide test; assay type: in vivo, Gossypium hirsutum var. DPL smooth leaf; conditions: Gossypium hirsutum, 336 h, two weeks after treatment
Summary of the method: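 Crop and weed species seeded one day before treatment, then sprayed pre-emergence at 8 lbs actual compound per acre (also 4 lbs/acre formulations) in 38 gallons per acre. Pots kept in greenhouse with sub-irrigation only; injury or control visually rated two weeks after treatment.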

Johnson grass (JG) [15] = assay: Post-emergence herbicide test; assay type: in vivo, Sorgum helepense; conditions: Sorghum halepense, 336 h, two weeks after treatment
Summary of the method: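 Greenhouse pot-grown seedlings sprayed post-emergence at 8 lbs compound per acre (some at 4 lbs/acre) in 38 gallons per acre spray volume. Sub-irrigated thereafter. Injury/control rated visually two weeks after treatment.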

Cotton (CT) [16] = assay: Post-emergence herbicide test; assay type: in vivo, Gossypium hirsutum var. DPL smooth leaf; conditions: Gossypium hirsutum, post-emergence, 336 h, two weeks after treatment
Summary of the method: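 Cotton (Gossypium hirsutum var. DPL smooth leaf) was grown in 3' plastic pots of potting soil, four seeds per pot, planted at a depth equal to the seed diameter and watered by sub-irrigation. At the stage of expanded cotyledons with the first true leaf 1' long, plants were sprayed post-emergence in a hood with a fixed nozzle over a moving belt. Percent control was rated visually two weeks later.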

Crabgrass (CG) [17] = assay: Post-emergence herbicide test; assay type: in vivo, Digitaria sanquinalis; conditions: Digitaria sanguinalis, post-emergence, 336 h, two weeks after treatment
Summary of the method: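 Crabgrass (Digitaria sanquinalis) was surface seeded individually in 3' plastic pots of potting soil, covered with screened soil, and watered by sub-irrigation in greenhouse trays. Planting was staggered so seedlings reached the target stage together. Post-emergence sprays were applied in a hood with a removable belt and fixed nozzle, and control was visually rated two weeks after treatment.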

Barnyard grass (BG) [18] = assay: Pre-emergence herbicide test; assay type: in vivo; conditions: Echinochloa crus-galli, 336 h, two weeks after treatment
Summary of the method: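 Barnyard grass surface-seeded in potting soil and sprayed pre-emergence one day after seeding, at 8 or 4 lb compound/acre in 38 gal/acre spray volume. Pots kept in greenhouse with sub-irrigation only; injury or control rated visually two weeks after treatment.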

[19] = tested on: variety of crops and weed species; assay: Pre- and post-emergence herbicide tests, overall assessment of Tables III-VI; assay type: in vivo; conditions: data of Tables III-VI
Summary of the method: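 Crops and weeds grown in potting soil were sprayed at 8 lbs. compound per acre in 38 gallons per acre, pre-emergence pots seeded one day before treatment. Injury or control was visually rated two weeks after treatment.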

## CCN(C(=O)NC)c1nnc(C(F)(F)F)s1 [Example 37]
Amaranth pigweed (PW) [1]; 2 lb/acre
  pest or weed control at 2241.7 g/ha: 90%
Amaranth pigweed (PW) [1]; 4 lb/acre
  pest or weed control at 4483.4 g/ha: 100%
Amaranth pigweed (PW) [1]; 8 lb/acre
  pest or weed control at 8966.8 g/ha: 100%
[2]; 2 lb/acre
  pest or weed control at 2241.7 g/ha: 70%
[2]; 4 lb/acre
  pest or weed control at 4483.4 g/ha: 80%
[2]; 8 lb/acre
  pest or weed control at 8966.8 g/ha: 90%
Bean (BN) [3]; 2 lb/acre
  pest or weed control at 2241.7 g/ha: 90%
Bean (BN) [3]; 4 lb/acre
  pest or weed control at 4483.4 g/ha: 100%
Bean (BN) [3]; 8 lb/acre
  pest or weed control at 8966.8 g/ha: 100%
Corn (CN) [4]; 2 lb/acre
  pest or weed control: 20%
Corn (CN) [4]; 4 lb/acre
  pest or weed control at 4483.4 g/ha: 80%
Corn (CN) [4]; 8 lb/acre
  pest or weed control at 8966.8 g/ha: 80%
[5]; 2 lb/acre
  pest or weed control: 30%
[5]; 4 lb/acre
  pest or weed control at 4483.4 g/ha: 50%
[5]; 8 lb/acre
  pest or weed control at 8966.8 g/ha: 90%
Barnyard grass (BG) [6]; 2 lb/acre
  pest or weed control at 2241.7 g/ha: 20%
Barnyard grass (BG) [6]; 4 lb/acre
  pest or weed control at 4483.4 g/ha: 30%
Barnyard grass (BG) [6]; 8 lb/acre
  pest or weed control at 8966.8 g/ha: 90%
Bean (BN) [7]; 2 lb/acre
  pest or weed control at 2241.7 g/ha: 80%
Bean (BN) [7]; 4 lb/acre
  pest or weed control at 4483.4 g/ha: 70%
Bean (BN) [7]; 8 lb/acre
  pest or weed control at 8966.8 g/ha: 90%
Turnip (TP) [8]; 2 lb/acre
  pest or weed control at 2241.7 g/ha: 90%
Turnip (TP) [8]; 4 lb/acre
  pest or weed control at 4483.4 g/ha: 90%
Turnip (TP) [8]; 8 lb/acre
  pest or weed control at 8966.8 g/ha: 100%
Corn (CN) [9]; 2 lb/acre
  pest or weed control at 2241.7 g/ha: 30%
Corn (CN) [9]; 4 lb/acre
  pest or weed control at 4483.4 g/ha: 40%
Corn (CN) [9]; 8 lb/acre
  pest or weed control at 8966.8 g/ha: 50%
Turnip (TP) [10]; 2 lb/acre
  pest or weed control at 2241.7 g/ha: 100%
Turnip (TP) [10]; 4 lb/acre
  pest or weed control at 4483.4 g/ha: 100%
Turnip (TP) [10]; 8 lb/acre
  pest or weed control at 8966.8 g/ha: 100%
Amaranth pigweed (PW) [11]; 2 lb/acre
  pest or weed control at 2241.7 g/ha: 90%
Amaranth pigweed (PW) [11]; 4 lb/acre
  pest or weed control at 4483.4 g/ha: 100%
Amaranth pigweed (PW) [11]; 8 lb/acre
  pest or weed control at 8966.8 g/ha: 100%
Crabgrass (CG) [12]; 2 lb/acre
  pest or weed control: 90%
Crabgrass (CG) [12]; 4 lb/acre
  pest or weed control at 4483.4 g/ha: 90%
Crabgrass (CG) [12]; 8 lb/acre
  pest or weed control at 8966.8 g/ha: 90%
Johnson grass (JG) [13]; 2 lb/acre
  pest or weed control at 2241.7 g/ha: 60%
Johnson grass (JG) [13]; 4 lb/acre
  pest or weed control at 4483.4 g/ha: 70%
Johnson grass (JG) [13]; 8 lb/acre
  pest or weed control at 8966.8 g/ha: 60%
Cotton (CT) [14]; 2 lb/acre
  pest or weed control at 2241.7 g/ha: 40%
Cotton (CT) [14]; 4 lb/acre
  pest or weed control at 4483.4 g/ha: 40%
Cotton (CT) [14]; 8 lb/acre
  pest or weed control at 8966.8 g/ha: 60%
Johnson grass (JG) [15]; 2 lb/acre
  pest or weed control: 20%
Johnson grass (JG) [15]; 4 lb/acre
  pest or weed control at 4483.4 g/ha: 30%
Johnson grass (JG) [15]; 8 lb/acre
  pest or weed control at 8966.8 g/ha: 70%
Cotton (CT) [16]; 2 lb/acre
  pest or weed control at 2241.7 g/ha: 100%
Cotton (CT) [16]; 4 lb/acre
  pest or weed control at 4483.4 g/ha: 100%
Cotton (CT) [16]; 8 lb/acre
  pest or weed control at 8966.8 g/ha: 100%
Crabgrass (CG) [17]; 2 lb/acre
  pest or weed control: 30%
Crabgrass (CG) [17]; 4 lb/acre
  pest or weed control at 4483.4 g/ha: 40%
Crabgrass (CG) [17]; 8 lb/acre
  pest or weed control at 8966.8 g/ha: 90%
Barnyard grass (BG) [18]; 2 lb/acre
  pest or weed control at 2241.7 g/ha: 50%
Barnyard grass (BG) [18]; 4 lb/acre
  pest or weed control at 4483.4 g/ha: 60%
Barnyard grass (BG) [18]; 8 lb/acre
  pest or weed control at 8966.8 g/ha: 90%
[19]
  herbicidal effectiveness / selectivity, in words: extremely effective when applied to a variety of crops and weed species
